Converted amounts (≈) assume the structure as drawn. The source made the active and inactive calls. The rule behind the calls is not given here.
Assays:
Staphylococcus aureus [1] = assay: Antibiofilm activity in Staphylococcus aureus ATCC 29213 assessed as disruption of preformed biofilm at 40 times MIC measured after 24 hrs by crystal violet staining based assay relative to control; assay type: functional
Staphylococcus aureus [2] = assay: Antibacterial activity against Staphylococcus aureus ATCC 29213 assessed as reduction in bacterial growth measured after 18 to 24 hrs by broth microdilution method; assay type: functional; conditions: time 18-24 hrs
Staphylococcus aureus [3] = assay: Antibacterial activity against Staphylococcus aureus ATCC 29213 infected in female BALB/c mouse skin infection model assessed as reduction in bacterial load at 10 times MIC pre-infected with bacteria followed by compound addition and measured after 24 hrs relative to control; assay type: functional; parameters: scale not given: the % may be the effect or the level left
Staphylococcus aureus [4] = assay: Antibacterial activity against methicillin-resistant Staphylococcus aureus NRS 192 assessed as reduction in bacterial growth measured after 18 to 24 hrs by broth microdilution method; assay type: functional; conditions: time 18-24 hrs
[5] = Hemolytic activity in human Red blood cell at 32 ug/ml measured after 1 hrs by spectrophotometric analysis relative to control; assay type: toxicity, cell-based, Erythrocyte; conditions: red blood cells, at 32 µg/mL, read-out: Activity
[6] = Toxicity in female BALB/c mouse assessed as effect on body weight measured after 24 hrs; conditions: in vivo
Staphylococcus aureus [7] = assay: Inhibition of biofilm in Staphylococcus aureus ATCC 29213 at 0.5 times MIC measured after 12 hrs by crystal violet staining based analysis relative to control; assay type: functional
[8] = Drug distribution in female BALB/c mouse heart measured after 24 hrs; assay type: ADME, tissue-based; conditions: in vivo
Staphylococcus aureus [9] = assay: Antibacterial activity against Staphylococcus aureus ATCC 29213 infected in female BALB/c mouse skin infection model assessed as reduction of abscess in subcutaneous tissue at 10 times MIC pre-infected with bacteria followed by compound addition and measured after 24 hrs; assay type: functional, organism-based
Staphylococcus aureus [10] = assay: Antibacterial activity against Staphylococcus aureus ATCC 29213 measured after 20 passages; assay type: functional, organism-based
Staphylococcus aureus [11] = assay: Antibacterial activity against methicillin-resistant Staphylococcus aureus NRS 186 assessed as reduction in bacterial growth measured after 18 to 24 hrs by broth microdilution method; assay type: functional; conditions: time 18-24 hrs
Staphylococcus aureus [12] = assay: Antibacterial activity against methicillin-resistant Staphylococcus aureus NRS 191 assessed as reduction in bacterial growth measured after 18 to 24 hrs by broth microdilution method; assay type: functional; conditions: time 18-24 hrs
[13] = Drug distribution in female BALB/c mouse skin measured after 24 hrs; assay type: ADME, tissue-based, Skin of body; conditions: in vivo
[14] = Drug distribution in female BALB/c mouse lung measured after 24 hrs; assay type: ADME, tissue-based; conditions: in vivo
Staphylococcus aureus [15] = assay: Antibiofilm activity in Staphylococcus aureus ATCC 29213 assessed as disruption of preformed biofilm at 1 times MIC measured after 24 hrs by crystal violet staining based assay relative to control; assay type: functional
Cell membrane [16] = assay: Disruption of cell membrane in Staphylococcus aureus ATCC 29213 assessed as increase in PI uptake at 10 times MIC measured after 8 mins by fluorescence based microplate reader analysis
Staphylococcus aureus [17] = assay: Antibacterial activity against vacomycin-resistant Staphylococcus aureus VRS 1 assessed as reduction in bacterial growth measured after 18 to 24 hrs by broth microdilution method; assay type: functional; conditions: time 18-24 hrs
Staphylococcus aureus [18] = assay: Antibacterial activity against Staphylococcus aureus ATCC 29213 infected in female BALB/c mouse skin infection model assessed as reduction in skin lesions at 10 times MIC pre-infected with bacteria followed by compound addition and measured after 24 hrs; assay type: functional, organism-based
[19] = Solubility of the compound in DMSO/DMF; assay type: physicochemical
Cell membrane [20] = assay: Disruption of cell membrane in Staphylococcus aureus ATCC 29213 assessed as increase in red fluorescence at 5 to 10 times MIC measured after 4 hrs by DAPI and PI staining based fluorescence microscopic analysis
Escherichia coli = assay: Antibacterial activity against Escherichia coli ATCC 25922 assessed as reduction in bacterial growth measured after 18 to 24 hrs by broth microdilution method; assay type: functional; conditions: time 18-24 hrs
Staphylococcus aureus [21] = assay: Antibacterial activity against methicillin-resistant Staphylococcus aureus NRS 198 assessed as reduction in bacterial growth measured after 18 to 24 hrs by broth microdilution method; assay type: functional; conditions: time 18-24 hrs
Staphylococcus aureus [22] = assay: Antibacterial activity against vacomycin-resistant Staphylococcus aureus VRS 12 assessed as reduction in bacterial growth measured after 18 to 24 hrs by broth microdilution method; assay type: functional; conditions: time 18-24 hrs
Staphylococcus aureus [23] = assay: Antibacterial activity against methicillin-resistant Staphylococcus aureus NRS 194 assessed as reduction in bacterial growth measured after 18 to 24 hrs by broth microdilution method; assay type: functional; conditions: time 18-24 hrs
Staphylococcus aureus [24] = assay: Antibiofilm activity in Staphylococcus aureus ATCC 29213 assessed as disruption of preformed biofilm at 20 times MIC measured after 24 hrs by crystal violet staining based assay relative to control; assay type: functional
[25] = Solubility of the compound in distilled water; assay type: physicochemical; conditions: buffer
[26] = Drug distribution in female BALB/c mouse liver measured after 24 hrs; assay type: ADME, tissue-based; conditions: in vivo
[27] = Toxicity in female BALB/c mouse assessed as effect on heart measured after 24 hrs by H and E staining based analysis; assay type: tissue-based; conditions: in vivo
[28] = Drug distribution in female BALB/c mouse kidney measured after 24 hrs; assay type: ADME, tissue-based; conditions: in vivo
Klebsiella pneumoniae = assay: Antibacterial activity against Klebsiella pneumoniae BAA 1705 assessed as reduction in bacterial growth measured after 18 to 24 hrs by broth microdilution method; assay type: functional; conditions: time 18-24 hrs
Staphylococcus aureus [29] = assay: Antibiofilm activity in Staphylococcus aureus ATCC 29213 assessed as disruption of preformed biofilm at 5 times MIC measured after 24 hrs by crystal violet staining based assay relative to control; assay type: functional
[30] = Drug distribution in female BALB/c mouse spleen measured after 24 hrs; assay type: ADME, tissue-based; conditions: in vivo
Staphylococcus aureus [31] = assay: Antibacterial activity against methicillin-resistant Staphylococcus aureus NRS 193 assessed as reduction in bacterial growth measured after 18 to 24 hrs by broth microdilution method; assay type: functional; conditions: time 18-24 hrs
Staphylococcus aureus [32] = assay: Inhibition of biofilm in Staphylococcus aureus ATCC 29213 at 2 times MIC measured after 12 hrs by crystal violet staining based analysis relative to control; assay type: functional
Enterococcus faecalis = assay: Antibacterial activity against Enterococcus faecalis ATCC 35550 assessed as reduction in bacterial growth measured after 18 to 24 hrs by broth microdilution method; assay type: functional; conditions: time 18-24 hrs
Staphylococcus aureus [33] = assay: Antibiofilm activity in Staphylococcus aureus ATCC 29213 assessed as disruption of preformed biofilm at 10 times MIC measured after 24 hrs by crystal violet staining based assay relative to control; assay type: functional
[34] = Toxicity in female BALB/c mouse assessed as effect on lung measured after 24 hrs by H and E staining based analysis; assay type: tissue-based; conditions: in vivo
Staphylococcus aureus [35] = assay: Bactericidal activity against Staphylococcus aureus ATCC 29213 at 4 to 8 time MIC measured after 8 hrs by time-kill assay; assay type: functional, organism-based
Bacillus subtilis = assay: Antibacterial activity against Bacillus subtilis IITKSM1 assessed as reduction in bacterial growth measured after 18 to 24 hrs by broth microdilution method; assay type: functional; conditions: time 18-24 hrs
Pseudomonas aeruginosa = assay: Antibacterial activity against Pseudomonas aeruginosa ATCC 27853 assessed as reduction in bacterial growth measured after 18 to 24 hrs by broth microdilution method; assay type: functional; conditions: time 18-24 hrs
Staphylococcus aureus [36] = assay: Bactericidal activity against Staphylococcus aureus ATCC 29213 at 4 to 8 time MIC measured within 60 mins by time-kill assay; assay type: functional, organism-based
Staphylococcus aureus [37] = assay: Antibacterial activity against methicillin-resistant Staphylococcus aureus NRS 119 assessed as reduction in bacterial growth measured after 18 to 24 hrs by broth microdilution method; assay type: functional; conditions: time 18-24 hrs
[38] = Toxicity in female BALB/c mouse assessed as effect on spleen measured after 24 hrs by H and E staining based analysis; assay type: tissue-based; conditions: in vivo

For `O=C(O)c1cccc(C(=O)Nc2c(C(c3ccc(F)cc3)c3ccc(F)cc3)cc(Cl)cc2C(c2ccc(F)cc2)c2ccc(F)cc2)c1`, the Activity (Staphylococcus aureus [1]) was 31.47%, the MIC (Staphylococcus aureus [2]) was 1 µg/mL (≈ 1.47 µM) and the Activity (Staphylococcus aureus [3]) was roughly 83%. The MIC (Staphylococcus aureus [4]) was 2 µg/mL (≈ 2.94 µM), the hemolysis at 1 h, 32 ug/ml [5] was 70% and the Activity [6] was “Non-toxic”. For the same molecule, the “inhibition (INH)” value (Staphylococcus aureus [7]) was greater than 50%, the Drug uptake [8] was 7.7 nmol/mg and the Activity (Staphylococcus aureus [9]) was “Active”. The Activity (Staphylococcus aureus [10]) was “Active”, the MIC (Staphylococcus aureus [11]) was 2 µg/mL (≈ 2.94 µM) and the MIC (Staphylococcus aureus [12]) was 2 µg/mL (≈ 2.94 µM). The Drug uptake [13] was 5.93 nmol/mg, the Drug uptake [14] was 9.91 nmol/mg and the Activity (Staphylococcus aureus [15]) was 7.29%. The Activity (Cell membrane [16]) was “Active”, the MIC (Staphylococcus aureus [17]) was 2 µg/mL (≈ 2.94 µM) and the Activity (Staphylococcus aureus [18]) was “Active”. The solubility [19] was 570 mg/mL (≈ 838000 µM), the Activity (Cell membrane [20]) was “Active” and the MIC (Escherichia coli) was greater than 64 µg/mL. For the same molecule, the MIC (Staphylococcus aureus [21]) was 2 µg/mL (≈ 2.94 µM), the MIC (Staphylococcus aureus [22]) was 2 µg/mL (≈ 2.94 µM) and the MIC (Staphylococcus aureus [23]) was 2 µg/mL (≈ 2.94 µM). The Activity (Staphylococcus aureus [24]) was 18.42%, the solubility [25] was “Insoluble” and the Drug uptake [26] was 3.92 nmol/mg. For the same molecule, the Activity [27] was “Non-toxic”, the Drug uptake [28] was 4.02 nmol/mg and the MIC (Klebsiella pneumoniae) was greater than 64 µg/mL. The Activity (Staphylococcus aureus [29]) was 7.1%, the Drug uptake [30] was 9.01 nmol/mg and the MIC (Staphylococcus aureus [31]) was 2 µg/mL (≈ 2.94 µM). The “inhibition (INH)” value (Staphylococcus aureus [32]) was 95%, the MIC (Enterococcus faecalis) was 1 µg/mL (≈ 1.47 µM) and the Activity (Staphylococcus aureus [33]) was 11.84%. For the same molecule, the Activity [34] was “Non-toxic”, the Activity (Staphylococcus aureus [35]) was “Active” and the MIC (Bacillus subtilis) was 1 µg/mL (≈ 1.47 µM). For the same molecule, the MIC (Pseudomonas aeruginosa) was greater than 64 µg/mL, the Activity (Staphylococcus aureus [36]) was “Active” and the MIC (Staphylococcus aureus [37]) was 2 µg/mL (≈ 2.94 µM). The Activity [38] was “Non-toxic”.

— ChEMBL document CHEMBL6177993, “De Novo 3-(Phenylcarbamoyl) Benzoate Analogues: Efficacy against Multidrug-Resistant S. aureus and Elucidation of the Biodistribution Profile” (J Med Chem, 2025)
